Experimental data: ChEMBL document CHEMBL4507259 (2021)

Columns and labels:
[1] = GPCRScan assay: inhibition of GABA/PBR; parameters: species or system Rattus norvegicus; radioligand conc. used [nm] 0.3 – 2.0, parental cells brain tissue
[2] = biological target: GABA-A receptor; anion channel (Homo sapiens) (UniProt P14867+P47870+P18507+P28472+P48169+Q99928+Q9UN88+P34903+O00591+O14764+Q8N1C3+P18505+P78334+P47869+P31644+Q16445); assay: Cl- channel (GABA-gated) CEREP ligand profiling; format: protein-complex assay; settings: filed as antagonist; Compound concentration 10.0 uM
[3] = biological target: Cannabinoid receptor 1 (Homo sapiens) (UniProt P21554); assay: CB1 (h) CEREP ligand profiling; settings: filed as agonist, Compound concentration 10.0 uM
[4] = biological target: Melatonin receptor type 1B (Homo sapiens) (UniProt P49286); assay: MT2 (ML1B) (h) CEREP ligand profiling; settings: filed as agonist, Compound concentration 10.0 uM
[5] = biological target: Urotensin-2 receptor (Homo sapiens) (UniProt Q9UKP6); assay: UT (h) CEREP ligand profiling; settings: filed as agonist, Compound concentration 10.0 uM
[6] = biological target: 5-hydroxytryptamine receptor 1B (Homo sapiens) (UniProt P28222); assay: 5-HT1B CEREP ligand profiling; settings: filed as antagonist; Compound concentration 10.0 uM
[7] = tested on: Tyrosine-protein kinase ABL1 (Homo sapiens), P00519 [F317L]; settings: Compound concentration 1000.0 nM
[8] = biological target: 5'-AMP-activated protein kinase catalytic subunit alpha-1 (Homo sapiens) (UniProt Q13131); settings: Compound concentration 1000.0 nM
[9] = biological target: Aurora kinase C (Homo sapiens) (UniProt Q9UQB9); settings: Compound concentration 1000.0 nM
[10] = biological target: Calcium/calmodulin-dependent protein kinase type II subunit beta (Homo sapiens) (UniProt Q13554); settings: Compound concentration 1000.0 nM
[11] = biological target: Calcium/calmodulin-dependent protein kinase type II subunit delta (Homo sapiens) (UniProt Q13557); settings: Compound concentration 1000.0 nM
[12] = biological target: Cyclin-dependent kinase 11B (Homo sapiens) (UniProt P21127); settings: Compound concentration 1000.0 nM
[13] = biological target: Tyrosine-protein kinase CSK (Homo sapiens) (UniProt P41240); settings: Compound concentration 1000.0 nM
[14] = biological target: Casein kinase I isoform alpha (Homo sapiens) (UniProt P48729); settings: Compound concentration 1000.0 nM
[15] = biological target: Death-associated protein kinase 1 (Homo sapiens) (UniProt P53355); settings: Compound concentration 1000.0 nM
[16] = biological target: Serine/threonine-protein kinase DCLK3 (Homo sapiens) (UniProt Q9C098); settings: Compound concentration 1000.0 nM
[17] = biological target: Ephrin type-A receptor 5 (Homo sapiens) (UniProt P54756); settings: Compound concentration 1000.0 nM
[18] = biological target: Receptor tyrosine-protein kinase erbB-4 (Homo sapiens) (UniProt Q15303); settings: Compound concentration 1000.0 nM
[19] = biological target: Mitogen-activated protein kinase 1 (Homo sapiens) (UniProt P28482); settings: Compound concentration 1000.0 nM
[20] = tested on: Receptor-type tyrosine-protein kinase FLT3 (Homo sapiens), P36888 [UNDEFINED MUTATION]; settings: Compound concentration 1000.0 nM
[21] = biological target: Vascular endothelial growth factor receptor 3 (Homo sapiens) (UniProt P35916); settings: Compound concentration 1000.0 nM
[22] = biological target: Inhibitor of nuclear factor kappa-B kinase subunit epsilon (Homo sapiens) (UniProt Q14164); settings: Compound concentration 1000.0 nM
[23] = tested on: Mast/stem cell growth factor receptor Kit (Homo sapiens), P10721 [V559D]; settings: Compound concentration 1000.0 nM
[24] = biological target: LIM domain kinase 2 (Homo sapiens) (UniProt P53671); settings: Compound concentration 1000.0 nM
[25] = biological target: Myosin light chain kinase (Homo sapiens) (UniProt Q32MK0); settings: Compound concentration 1000.0 nM
[26] = biological target: Serine/threonine-protein kinase 24 (Homo sapiens) (UniProt Q9Y6E0); settings: Compound concentration 1000.0 nM
[27] = biological target: Mitogen-activated protein kinase 12 (Homo sapiens) (UniProt P53778); settings: Compound concentration 1000.0 nM
[28] = tested on: Phosphatidylinositol 4,5-bisphosphate 3-kinase catalytic subunit alpha isoform (Homo sapiens), P42336 [C420R]; settings: Compound concentration 1000.0 nM
[29] = tested on: Phosphatidylinositol 4,5-bisphosphate 3-kinase catalytic subunit alpha isoform (Homo sapiens), P42336 [I800L]; settings: Compound concentration 1000.0 nM
[30] = biological target: Phosphatidylinositol 4,5-bisphosphate 3-kinase catalytic subunit gamma isoform (Homo sapiens) (UniProt P48736); settings: Compound concentration 1000.0 nM
[31] = biological target: Serine/threonine-protein kinase PLK1 (Homo sapiens) (UniProt P53350); settings: Compound concentration 1000.0 nM
[32] = biological target: Serine/threonine-protein kinase D2 (Homo sapiens) (UniProt Q9BZL6); settings: Compound concentration 1000.0 nM
[33] = biological target: Serine/threonine-protein kinase SIK3 (Homo sapiens) (UniProt Q9Y2K2); settings: Compound concentration 1000.0 nM
[34] = biological target: Receptor-interacting serine/threonine-protein kinase 4 (Homo sapiens) (UniProt P57078); settings: Compound concentration 1000.0 nM
[35] = biological target: Ribosomal protein S6 kinase alpha-5 (Homo sapiens) (UniProt O75582); settings: Compound concentration 1000.0 nM
[36] = biological target: SRSF protein kinase 1 (Homo sapiens) (UniProt Q96SB4); settings: Compound concentration 1000.0 nM
[37] = biological target: TGF-beta receptor type-1 (Homo sapiens) (UniProt P36897); settings: Compound concentration 1000.0 nM
[38] = biological target: Tyrosine-protein kinase TXK (Homo sapiens) (UniProt P42681); settings: Compound concentration 1000.0 nM
[39] = biological target: Wee1-like protein kinase (Homo sapiens) (UniProt P30291); settings: Compound concentration 1000.0 nM
[40] = biological target: Mitogen-activated protein kinase kinase kinase 20 (Homo sapiens) (UniProt Q9NYL2); settings: Compound concentration 1000.0 nM
[41] = biological target: Tyrosine-protein kinase ZAP-70 (Homo sapiens) (UniProt P43403); settings: Compound concentration 1000.0 nM
[42] = biological target: 5-hydroxytryptamine receptor 5A (Homo sapiens) (UniProt P47898); settings: Compound concentration 10.0 uM
[43] = biological target: Sodium-dependent dopamine transporter (Homo sapiens, UniProt Q01959); settings: Compound concentration 10.0 uM
Rattus norvegicus = organism: Rattus norvegicus; settings: Compound concentration 10.0 uM

Chain of Serine/threonine-protein kinase 24 (Homo sapiens) (Q9Y6E0 whole entry, looked up): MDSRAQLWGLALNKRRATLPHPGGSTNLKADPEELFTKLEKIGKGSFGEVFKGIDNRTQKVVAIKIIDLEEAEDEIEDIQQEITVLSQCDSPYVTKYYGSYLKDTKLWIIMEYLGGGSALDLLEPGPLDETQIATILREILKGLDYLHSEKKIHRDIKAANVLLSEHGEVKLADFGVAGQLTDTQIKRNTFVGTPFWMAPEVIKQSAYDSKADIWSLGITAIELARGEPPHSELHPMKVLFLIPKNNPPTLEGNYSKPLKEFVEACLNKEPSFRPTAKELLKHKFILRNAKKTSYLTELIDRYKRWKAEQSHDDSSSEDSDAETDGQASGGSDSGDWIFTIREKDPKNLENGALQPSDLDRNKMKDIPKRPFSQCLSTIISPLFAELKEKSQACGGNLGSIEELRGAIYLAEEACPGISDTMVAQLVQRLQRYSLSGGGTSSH
Chain of Sodium-dependent dopamine transporter (Q01959 whole entry): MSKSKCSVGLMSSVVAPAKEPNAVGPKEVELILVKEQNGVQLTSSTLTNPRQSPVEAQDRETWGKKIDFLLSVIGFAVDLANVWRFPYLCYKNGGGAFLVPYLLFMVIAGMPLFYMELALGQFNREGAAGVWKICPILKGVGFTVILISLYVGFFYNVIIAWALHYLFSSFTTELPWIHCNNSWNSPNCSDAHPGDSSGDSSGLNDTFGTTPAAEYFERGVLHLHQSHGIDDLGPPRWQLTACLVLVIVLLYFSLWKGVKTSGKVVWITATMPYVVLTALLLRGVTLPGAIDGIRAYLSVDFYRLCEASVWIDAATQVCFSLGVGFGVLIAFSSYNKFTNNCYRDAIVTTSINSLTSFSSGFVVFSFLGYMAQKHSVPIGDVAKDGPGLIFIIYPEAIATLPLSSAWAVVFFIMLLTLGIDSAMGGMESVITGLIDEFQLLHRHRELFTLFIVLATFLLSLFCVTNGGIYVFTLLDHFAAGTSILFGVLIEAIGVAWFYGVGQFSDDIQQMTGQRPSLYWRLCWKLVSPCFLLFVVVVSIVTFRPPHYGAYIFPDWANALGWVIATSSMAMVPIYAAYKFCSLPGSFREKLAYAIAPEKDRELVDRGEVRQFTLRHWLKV
Chain of Receptor-type tyrosine-protein kinase FLT3 (Homo sapiens), P36888 [UNDEFINED MUTATION] (P36888 whole entry, looked up, change not shown): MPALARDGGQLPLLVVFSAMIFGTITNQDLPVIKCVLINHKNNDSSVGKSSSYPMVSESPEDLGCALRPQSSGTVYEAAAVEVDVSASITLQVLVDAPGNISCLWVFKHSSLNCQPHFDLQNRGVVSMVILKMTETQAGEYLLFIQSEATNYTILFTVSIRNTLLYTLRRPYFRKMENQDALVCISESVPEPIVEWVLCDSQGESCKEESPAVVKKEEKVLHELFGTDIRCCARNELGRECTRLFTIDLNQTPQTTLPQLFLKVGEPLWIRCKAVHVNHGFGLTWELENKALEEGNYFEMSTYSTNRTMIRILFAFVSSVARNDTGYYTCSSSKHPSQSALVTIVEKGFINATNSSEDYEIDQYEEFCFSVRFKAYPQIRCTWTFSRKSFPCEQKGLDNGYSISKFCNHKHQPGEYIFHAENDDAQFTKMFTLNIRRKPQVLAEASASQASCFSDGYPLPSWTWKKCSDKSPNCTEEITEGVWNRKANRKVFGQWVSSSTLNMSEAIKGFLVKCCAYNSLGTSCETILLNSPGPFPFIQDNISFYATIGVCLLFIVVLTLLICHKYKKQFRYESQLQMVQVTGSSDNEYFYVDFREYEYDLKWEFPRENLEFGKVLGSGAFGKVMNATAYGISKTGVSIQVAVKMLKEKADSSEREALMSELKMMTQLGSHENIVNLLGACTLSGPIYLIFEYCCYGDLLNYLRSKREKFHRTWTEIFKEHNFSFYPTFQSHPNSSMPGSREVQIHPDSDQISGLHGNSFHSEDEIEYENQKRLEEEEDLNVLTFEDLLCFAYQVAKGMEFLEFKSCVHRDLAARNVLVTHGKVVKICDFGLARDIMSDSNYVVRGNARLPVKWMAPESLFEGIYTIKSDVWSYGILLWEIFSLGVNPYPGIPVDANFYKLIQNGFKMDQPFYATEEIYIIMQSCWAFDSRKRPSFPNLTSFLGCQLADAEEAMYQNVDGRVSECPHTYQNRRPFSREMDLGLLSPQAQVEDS
Chain of Mitogen-activated protein kinase 1 (Homo sapiens) (P28482 whole entry): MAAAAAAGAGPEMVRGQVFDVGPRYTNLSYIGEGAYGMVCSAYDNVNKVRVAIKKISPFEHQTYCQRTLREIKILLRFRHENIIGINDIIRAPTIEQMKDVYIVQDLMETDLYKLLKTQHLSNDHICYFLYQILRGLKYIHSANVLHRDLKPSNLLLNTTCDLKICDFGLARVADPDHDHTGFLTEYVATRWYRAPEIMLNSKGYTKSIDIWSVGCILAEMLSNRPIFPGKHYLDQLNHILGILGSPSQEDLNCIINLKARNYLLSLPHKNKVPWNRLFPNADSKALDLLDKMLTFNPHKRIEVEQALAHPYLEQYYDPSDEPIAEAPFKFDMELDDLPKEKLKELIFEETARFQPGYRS
Chain of SRSF protein kinase 1 (Homo sapiens) (Q96SB4 whole entry): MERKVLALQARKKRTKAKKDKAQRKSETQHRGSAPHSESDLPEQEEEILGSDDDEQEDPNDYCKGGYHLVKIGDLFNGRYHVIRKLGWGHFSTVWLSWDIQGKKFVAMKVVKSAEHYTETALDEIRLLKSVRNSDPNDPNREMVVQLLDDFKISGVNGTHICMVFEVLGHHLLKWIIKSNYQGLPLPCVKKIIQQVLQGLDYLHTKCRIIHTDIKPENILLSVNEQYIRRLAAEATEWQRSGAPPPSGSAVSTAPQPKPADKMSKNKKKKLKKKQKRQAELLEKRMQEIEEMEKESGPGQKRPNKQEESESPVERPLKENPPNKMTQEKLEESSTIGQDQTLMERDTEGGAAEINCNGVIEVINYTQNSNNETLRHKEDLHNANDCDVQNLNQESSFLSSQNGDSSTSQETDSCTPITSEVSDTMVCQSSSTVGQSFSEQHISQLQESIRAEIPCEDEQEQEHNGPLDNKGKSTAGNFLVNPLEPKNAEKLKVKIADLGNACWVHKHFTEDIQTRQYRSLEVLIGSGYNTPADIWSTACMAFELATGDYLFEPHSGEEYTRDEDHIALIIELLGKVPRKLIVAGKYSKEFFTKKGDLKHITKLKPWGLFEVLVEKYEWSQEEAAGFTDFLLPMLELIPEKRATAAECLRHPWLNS
Chain of Receptor-interacting serine/threonine-protein kinase 4 (Homo sapiens) (P57078 whole entry): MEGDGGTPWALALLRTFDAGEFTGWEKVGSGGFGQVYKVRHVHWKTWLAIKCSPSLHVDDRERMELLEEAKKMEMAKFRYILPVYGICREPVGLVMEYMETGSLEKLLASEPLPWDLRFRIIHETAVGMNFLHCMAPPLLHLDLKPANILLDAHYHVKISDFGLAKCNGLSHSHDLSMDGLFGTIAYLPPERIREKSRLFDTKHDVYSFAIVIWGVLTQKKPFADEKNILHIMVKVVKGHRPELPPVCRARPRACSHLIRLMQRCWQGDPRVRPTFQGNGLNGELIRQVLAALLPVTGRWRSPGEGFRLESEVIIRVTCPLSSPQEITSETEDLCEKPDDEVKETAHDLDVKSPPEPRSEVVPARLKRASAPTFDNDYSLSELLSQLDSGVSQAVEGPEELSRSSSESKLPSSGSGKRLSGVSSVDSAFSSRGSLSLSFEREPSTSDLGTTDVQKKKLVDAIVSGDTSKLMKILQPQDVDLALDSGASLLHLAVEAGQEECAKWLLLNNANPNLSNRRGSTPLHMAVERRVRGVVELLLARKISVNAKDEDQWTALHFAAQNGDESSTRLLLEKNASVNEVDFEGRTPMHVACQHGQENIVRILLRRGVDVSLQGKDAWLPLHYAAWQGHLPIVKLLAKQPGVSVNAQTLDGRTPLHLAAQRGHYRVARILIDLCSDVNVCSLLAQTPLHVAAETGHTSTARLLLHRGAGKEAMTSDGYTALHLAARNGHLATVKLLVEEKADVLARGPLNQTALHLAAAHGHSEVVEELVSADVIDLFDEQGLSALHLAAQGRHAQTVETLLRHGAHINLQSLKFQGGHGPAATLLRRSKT
Chain of Ribosomal protein S6 kinase alpha-5 (Homo sapiens) (O75582 whole entry, looked up): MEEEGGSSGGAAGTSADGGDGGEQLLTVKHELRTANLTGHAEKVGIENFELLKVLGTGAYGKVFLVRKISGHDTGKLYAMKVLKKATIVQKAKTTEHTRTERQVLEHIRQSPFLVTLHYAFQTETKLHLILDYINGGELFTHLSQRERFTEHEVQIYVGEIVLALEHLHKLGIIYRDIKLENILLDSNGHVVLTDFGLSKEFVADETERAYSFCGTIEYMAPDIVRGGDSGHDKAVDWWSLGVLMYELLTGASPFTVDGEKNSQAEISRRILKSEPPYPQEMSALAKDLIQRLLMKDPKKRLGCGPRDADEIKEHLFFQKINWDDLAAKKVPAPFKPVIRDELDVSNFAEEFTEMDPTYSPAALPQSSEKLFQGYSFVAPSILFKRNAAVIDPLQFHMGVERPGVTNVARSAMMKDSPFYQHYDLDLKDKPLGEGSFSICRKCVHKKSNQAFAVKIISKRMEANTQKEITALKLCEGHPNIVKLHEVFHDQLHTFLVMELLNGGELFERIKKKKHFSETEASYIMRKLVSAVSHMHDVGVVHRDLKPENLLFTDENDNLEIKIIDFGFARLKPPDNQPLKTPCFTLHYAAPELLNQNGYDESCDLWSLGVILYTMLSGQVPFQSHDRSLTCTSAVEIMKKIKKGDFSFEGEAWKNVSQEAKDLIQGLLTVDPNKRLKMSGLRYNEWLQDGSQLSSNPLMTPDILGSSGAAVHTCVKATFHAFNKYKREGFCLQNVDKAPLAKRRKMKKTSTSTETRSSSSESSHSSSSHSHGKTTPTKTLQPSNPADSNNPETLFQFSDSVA
Chain of Aurora kinase C (Homo sapiens) (Q9UQB9 whole entry): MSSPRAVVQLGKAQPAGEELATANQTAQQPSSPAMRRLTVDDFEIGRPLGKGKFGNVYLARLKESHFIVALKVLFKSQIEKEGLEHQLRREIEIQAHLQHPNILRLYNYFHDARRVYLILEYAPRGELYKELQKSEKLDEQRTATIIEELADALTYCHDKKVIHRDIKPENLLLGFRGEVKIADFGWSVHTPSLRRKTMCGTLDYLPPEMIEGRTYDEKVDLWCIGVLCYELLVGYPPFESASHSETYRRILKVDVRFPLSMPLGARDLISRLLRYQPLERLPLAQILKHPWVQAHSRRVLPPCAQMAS

For `CNC(=O)Nc1ccc2c(c1)[C@@]1(CC2)OC(=O)N(CC(=O)N(Cc2ccc(F)cc2)[C@@H](C)C(F)(F)F)C1=O` [A-486], which Ki [1] is on record?
Its Ki is 2580 nM.

What about the pKi [1] of the same compound?
Its pKi is 5.6.

And the inhibition [2]?
The inhibition was 41%.

And the inhibition [3]?
The inhibition was 22%.

What about the inhibition [4] of the same compound?
The inhibition was 8%.

And the inhibition [5]?
The inhibition was 21%.

What about the inhibition [6] of the same compound?
The inhibition was -9%.

What about the residual activity [7] of the same compound?
Its residual activity is 78%.

What about the residual activity [8] of the same compound?
Its residual activity is 91%.

What about the residual activity [9] of the same compound?
The residual activity was 100%.

What about the residual activity [10] of the same compound?
Its residual activity is 100%.

And the residual activity [11]?
Its residual activity is 100%.

And the residual activity [12]?
Its residual activity is 97%.

And the residual activity [13]?
The residual activity was 100%.

What about the residual activity [14] of the same compound?
Its residual activity is 83%.

What about the residual activity [15] of the same compound?
Its residual activity is 100%.

And the residual activity [16]?
The residual activity was 81%.

And the residual activity [17]?
Its residual activity is 94%.

What about the residual activity [18] of the same compound?
Its residual activity is 100%.

And the residual activity [19]?
The residual activity was 91%.

And the residual activity [20]?
Its residual activity is 87%.

What about the residual activity [21] of the same compound?
The residual activity was 100%.

And the residual activity [22]?
Its residual activity is 75%.

And the residual activity [23]?
The residual activity was 100%.

And the residual activity [24]?
Its residual activity is 90%.

What about the residual activity [25] of the same compound?
The residual activity was 85%.

And the residual activity [26]?
The residual activity was 100%.

What about the residual activity [27] of the same compound?
Its residual activity is 96%.

What about the residual activity [28] of the same compound?
Its residual activity is 80%.

What about the residual activity [29] of the same compound?
Its residual activity is 63%.

And the residual activity [30]?
The residual activity was 64%.

What about the residual activity [31] of the same compound?
Its residual activity is 82%.

And the residual activity [32]?
Its residual activity is 100%.

What about the residual activity [33] of the same compound?
The residual activity was 100%.

And the residual activity [34]?
The residual activity was 52%.

And the residual activity [35]?
The residual activity was 72%.

What about the residual activity [36] of the same compound?
Its residual activity is 100%.

What about the residual activity [37] of the same compound?
The residual activity was 89%.

And the residual activity [38]?
Its residual activity is 100%.

What about the residual activity [39] of the same compound?
Its residual activity is 100%.

And the residual activity [40]?
Its residual activity is 93%.

And the residual activity [41]?
Its residual activity is 100%.

What about the inhibition [42] of the same compound?
The inhibition was 2.78%.

What about the inhibition [43] of the same compound?
The inhibition was -6.45%.

And the inhibition (Rattus norvegicus)?
Its inhibition is 50.6%.

For `CNC(=O)Nc1ccc2c(c1)CC[C@@]21OC(=O)N(CC(=O)N(Cc2ccc(F)cc2)[C@@H](C)C(F)(F)F)C1=O` [A-485], which Ki [1] is on record?
The Ki was 1110 nM.

What about the pKi [1] of the same compound?
Its pKi is 5.96.

And the inhibition [2]?
Its inhibition is 47%.

What about the inhibition [3] of the same compound?
Its inhibition is 25%.

And the inhibition [4]?
Its inhibition is 12%.

And the inhibition [5]?
The inhibition was 6%.

What about the inhibition [6] of the same compound?
Its inhibition is -6%.

And the residual activity [7]?
The residual activity was 77%.

What about the residual activity [8] of the same compound?
The residual activity was 100%.

And the residual activity [9]?
The residual activity was 100%.

What about the residual activity [10] of the same compound?
The residual activity was 81%.

What about the residual activity [11] of the same compound?
Its residual activity is 91%.

What about the residual activity [12] of the same compound?
Its residual activity is 84%.

And the residual activity [13]?
Its residual activity is 100%.

What about the residual activity [14] of the same compound?
The residual activity was 93%.

What about the residual activity [15] of the same compound?
The residual activity was 96%.

What about the residual activity [16] of the same compound?
The residual activity was 83%.

And the residual activity [17]?
Its residual activity is 96%.

And the residual activity [18]?
The residual activity was 100%.

And the residual activity [19]?
Its residual activity is 91%.

And the residual activity [20]?
Its residual activity is 87%.

And the residual activity [21]?
Its residual activity is 89%.

And the residual activity [22]?
Its residual activity is 51%.

And the residual activity [23]?
Its residual activity is 100%.

And the residual activity [24]?
The residual activity was 88%.

What about the residual activity [25] of the same compound?
The residual activity was 90%.

What about the residual activity [26] of the same compound?
Its residual activity is 90%.

What about the residual activity [27] of the same compound?
Its residual activity is 63%.

And the residual activity [28]?
Its residual activity is 80%.

And the residual activity [29]?
Its residual activity is 83%.

And the residual activity [30]?
Its residual activity is 95%.

And the residual activity [31]?
The residual activity was 63%.

What about the residual activity [32] of the same compound?
The residual activity was 100%.

What about the residual activity [33] of the same compound?
The residual activity was 94%.

What about the residual activity [34] of the same compound?
The residual activity was 56%.

What about the residual activity [35] of the same compound?
Its residual activity is 63%.

What about the residual activity [36] of the same compound?
Its residual activity is 95%.

What about the residual activity [37] of the same compound?
Its residual activity is 98%.

And the residual activity [38]?
The residual activity was 78%.

What about the residual activity [39] of the same compound?
The residual activity was 80%.

What about the residual activity [40] of the same compound?
Its residual activity is 82%.

And the residual activity [41]?
Its residual activity is 73%.

What about the inhibition [42] of the same compound?
Its inhibition is 5.99%.

What about the inhibition [43] of the same compound?
Its inhibition is 63.9%.

What about the inhibition (Rattus norvegicus) of the same compound?
The inhibition was 60%.
